Test system: Rats
Experiment: Blood pressure measurements after i.v. injections
Format: in vivo
Details: in the same animals, dose not stated

CNC[C@H](O)c1cccc(O)c1 [phenylephrine]
arterial pressure: clear increase in pressure
